Measurements reported in US20250302863A1, “USE OF THBS1 INHIBITOR FOR OVERCOMING DRUG RESISTANCE IN CANCER” (KOREA ADVANCED INSTITUTE OF SCIENCE AND TECHNOLOGY, priority 2022, published 2025).

Legend:
Assay type in all cases: cell-based, Human
THBS1 mRNA = assay: THBS1 knockdown by shRNA, mRNA level by qRT-PCR; settings: lentiviral shRNA, FIG. 8A
Method: HEK 293T cells were used to transfect shRNA targeting THBS1 and an overexpression vector. In addition to shRNA (shTHBS1; […]; SEQ ID NO: 1) and an overexpression vector (pDNA (VB220725-1808zjh); […]. Infected cells were selected using 1 μg/ml of puromycin for at least one week.
(§1) Total RNA was extracted from cells using a total RNA extraction kit from Intron Biotechnology. Genomic DNA was removed by treatment with RNase-free DNase I. Complementary DNA (cDNA) was synthesized using a DiaStar RT kit of Solgent. In addition, RT-PCR was performed using Veriti 96-well Thermal Cycler of Applied Biosystems, and real-time polymerase chain reaction (qRT-PCR) was performed using a QuantStudio 5 real-time PCR system, an SYBR master mix (Genet Bio), and primers.
At this time, when NCI-H1792 and NCI-H1793 cell lines, lung cancer cell lines with drug resistance to APR-246, were treated with THBS1-targeting shRNA (SEQ ID NO: 1; […]) as a THBS1 inhibitor, the THBS1 mRNA expression level was reduced (FIG. 8A). In addition, when THBS1 was overexpressed in NCI-H2009 and HCC827, lung cancer cell lines with high drug responsiveness to APR-246, it was confirmed that the THBS1 mRNA expression level was increased (FIG. 8B).

THBS1 = THBS1 expression after TGF-beta pathway activation in sensitive cell lines; settings: two sensitive cell lines, 5 ng/ml TGFβ1 24 hours after seeding, harvested 24 hours later, FIGS. 10D and 10E
Method: (§2) Dimethyl sulfoxide (DMSO) was purchased from Sigma-Aldrich and was used as a drug control. APR-246 and TGFβ1 protein were purchased from MedChemExpress (MCE). APR-246 was used by diluting 25 mg to a final concentration of 10 mM, and the cells were treated for 4 to 5 days when checking the cell viability and for 24 hours when performing a Western blot experiment. In addition, TGFβ1 at a concentration of 10 μg/ml was a TGF-beta pathway activator, and drug-sensitive cell lines were seeded and treated with 5 ng/ml of TGFβ1 24 hours later, and the cells were harvested 24 hours later.
as §1

TGFβ1 mRNA = TGFβ1 mRNA expression after TGF-beta pathway activation in sensitive cell lines; settings: two sensitive cell lines, 5 ng/ml TGFβ1 24 hours after seeding, harvested 24 hours later, FIGS. 10D and 10E
Method: as §2, §1

HCC827 = assay: Cell viability by APR-246 treatment concentration (IncuCyte, crystal violet); settings: HCC827 p53-mutant lung cancer cells, 4 to 5 days, FIG. 7B
Method: (§3) Human lung cancer cell lines NCI-H1793, NCI-H2009, and HCC827 were purchased from the Korea Cell Line Bank (KCLB), and NCI-H1792 was purchased from the American Type Culture Collection (ATCC). NCI-H1793 and HCC827 were cultured in a RPMI 1640 medium supplemented with 10% fetal bovine serum (FBS) and antibiotics (100 U/ml penicillin, 100 μg/ml of streptomycin, and 0.25 μg/ml of Fungizone). NCI-H1792 and NCI-H2009 were cultured with the same supplements in a DMEM medium. All the cell lines were cultured at 37° C. in an incubator containing 5% carbon dioxide.
as §2
(§4) Cells were seeded in a 96-well plate at 3 to 5×10^3 cells per well. A drug was then treated within 24 hours after seeding. After drug treatment, cell growth was recorded every 3 hours using IncuCyte ZOOM for 4 to 5 days. Cell viability was analyzed using IncuCyte ZOOM 2016A software. After 4 to 5 days, the cells were stained with 1% crystal violet for 30 minutes at room temperature and washed with distilled water to confirm the amount of viable cells.
(§5) The present inventors confirmed the cell viability according to the APR-246 drug treatment concentration for lung cancer cell lines NCI-H1793, NCI-H1792, HCC827, and NCI-H2009, which were known to have p53 mutations. At this time, APR-246 drug-sensitive cell lines and resistant cell lines were distinguished based on z-score normalized IC50 values.

NCI-H1792 = assay: as above; settings: NCI-H1792 p53-mutant lung cancer cells, 4 to 5 days, FIG. 7A
Method: as §3, §2, §4, §5

NCI-H1793 = assay: as above; settings: NCI-H1793 p53-mutant lung cancer cells, 4 to 5 days, FIG. 7A
Method: as §3, §2, §4, §5

NCI-H2009 = assay: as above; settings: NCI-H2009 p53-mutant lung cancer cells, 4 to 5 days, FIG. 7B
Method: as §3, §2, §4, §5

THBS1-targeting shRNA: short hairpin RNA targeting THBS1, GTAGGTTATGATGAGTTTAAT (SEQ ID NO: 1), delivered by lentivirus (guide GUAGGUUAUGAUGAGUUUAAU)
THBS1 mRNA expression level (THBS1 mRNA; NCI-H1792 cells): reduced | THBS1 mRNA expression level (THBS1 mRNA; NCI-H1793 cells): reduced

drug that activated the TGF-beta signaling pathway: TGFβ1 protein from MedChemExpress, used as TGF-beta pathway activator at 5 ng/ml
expression level of THBS1 (THBS1): increased | mRNA expression level of TGFβ1 (TGFβ1 mRNA): increased

COCC1(CO)C(=O)C2CCN1CC2 (centres unmarked) [APR-246]
drug response (cell viability) (HCC827): clear response | drug response (cell viability) (NCI-H1792): hardly responded | drug response (cell viability) (NCI-H1793): hardly responded | drug response (cell viability) (NCI-H2009): clear response
